According to patent US20240116918A1, “SUBSTITUTED TRICYCLIC COMPOUND AS PRMT5 INHIBITOR AND USE THEREOF” (NANJING SANHOME PHARMACEUTICAL CO., LTD., priority 2019, published 2024):

Columns and labels:
hERG potassium channel = hERG potassium channel (Homo sapiens (Human), UniProt Q12809); assay: Electrophysiological manual patch-clamp detection of effect on hERG potassium channel
Description: Preparation of test solvents: preparation of extracellular fluid (mM): 137 NaCl, 4 KCl, 1.8 CaCl2, 1 MgCl2, 10 glucose and 10 HEPES (pH 7.4); preparation of intracellular fluid (mM): 130 KCl, 1 MgCl2, 5 EGTA, 5 MgATP and 10 HEPES (pH 7.2); preparation of negative control: extracellular fluid+0.3% DMSO; positive control: quinidine.
Compound treatment: The compound was weighed and dissolved in DMSO to prepare a 10 mM stock solution, which was diluted with DMSO to form secondary stock solutions with concentrations of 3.3, 1.1, 0.37 and 0.12 mM. 90 μL each of the stock solution and the secondary stock solutions was diluted into 30 mL of extracellular fluid for electrophysiological detection. The final concentrations of the compound were 30, 10, 3.3, 1.1 and 0.37 μM, and the final concentration of DMSO was 3:1000.
Stably transfected cell culture: The cell line was originated from HEK-293 cells overexpressing hERG potassium ion channel. […] The cells were cultured in an incubator at 37° C. and 5% CO2. When the cell density reaches 80% of the petri dish, the cells were first pre-washed with phosphate buffered saline (PBS), then digested with trypsin/EDTA for 2-3 min. Cell culture medium was added to stop the digestion. The cells were gently blown down and transferred to a centrifuge tube, and centrifuged at 1000 rpm for 3 min. The supernatant was discarded, cell culture medium was added, and the cells were mixed uniformly by gentle tapping. After that, the mixture was transferred to a petri dish for subculture, or the cells were dripped on a round glass slide and placed on a petri dish for the cells to adhere for experiments.
Experiments on electrophysiological manual patch-clamp system: The stably transfected cells were inoculated on a glass slide with a cell density lower than 50%, and cultured overnight. The experimental cells were transferred to a bath of about 1 mL embedded in an inverted microscope platform, and the extracellular fluid was perfused at a perfusion rate of 2.7 mL/min. After 5 minutes of stabilization, the experiment was started. Membrane currents were recorded using HEKA EPC-10 patch clamp amplifier and [sequence] acquisition system. All the experiments were performed at room temperature (22-24° C.). Electrodes were drawn straight using P-97 microelectrode drawing instrument (BF150-110-10) in the experiments. The inner diameter of the electrode was 1-1.5 mm, and the pipette resistance after filling with the inner liquid was 2-4 MΩ. The electrophysiological stimulation scheme of hERG potassium channel included: first setting the membrane voltage at −80 mV, applying a stimulation to the cells at +20 mV voltage for 2 s to activate the hERG potassium channel, and then repolarizing to −50 mV for 5 s to generate an outward tail current. The stimulation frequency was once every 15 s. The current value was the peak value of the tail current. The channel currents were recorded in the whole-cell recording mode. Firstly, the extracellular fluid was perfused (about 2 mL per minute) while recording was continued. When the current was stabilized (the current decay (Run-Down) was less than 5% within 5 minutes), the peak value of the tail current was the control current value. Then, the extracellular fluid containing the drug to be tested was perfused while the recording was continued until the inhibitory effect of the drug on the hERG current reached a steady state. At this time, the peak value of the tail current was the current value after drug addition. […]

MDA-MB-468 cells = assay: In vitro cell activity, MDA-MB-468 cells, CCK-8; format: cell-based; conditions: Homo sapiens, MDA-MB-468, 168 h, read-out: IC50 MDA-MB-468 Cell, triple negative breast cancer cells, 7 days
Description: Test compounds: the compounds of the present invention prepared in the above example. Each compound was formulated into a 10 mM stock solution with DMSO, and finally diluted into 8 concentrations for detection, with the final concentrations being 33333.00 nM, 6666.60 nM, 1333.32 nM, 266.66 nM, 53.33 nM, 10.67 nM, 2.13 nM, and 0.43 nM for experiments in Z-138 cells.
After thawing, the cryovial was taken out, and sterilized with an alcohol cotton ball, after which the cap was unscrewed. The cell fluid was drawn and injected into a centrifuge tube. 1 mL of L-15 medium containing 10% FBS was added, and mixed uniformly. The tube was placed in a centrifuge, and centrifuged at 1000 rpm for 5 min. Afterwards, the supernatant was discarded, and complete medium was added. The mixture was pipetted repeatedly until the cells were completely dispersed and resuspended. The mixture was inoculated in a petri dish at an appropriate concentration, and cultured in a CO2-free incubator at 37° C., and 95% humidified air.
The medium (Leibovitz's L-15 Medium+10% FBS+1% penicillin-streptomycin) was transferred to a 15 mL centrifuge tube, and centrifuged at 1000 rpm for 5 min. The supernatant was removed. The cells were resuspended in complete medium, and inoculated in a petri dish at the desired density. The dish was placed in a CO2-free incubator at 37° C., and 95% humid air. The culture medium was changed every 2-3 days or the passage was carried out, depending on the cell growth.
After passage, MDA-MB-468 cells were resuspended in complete medium at the corresponding density, 2000 cells/well, and inoculated in a 96-well culture plate. The wells at the outer circumference were filled with 200 μL PBS to prevent the culture conditions of the inner plate wells from being too different from each other due to the faster evaporation of medium at the edge. The leftmost column of the 60 inner wells were blank wells, which were not added with cells, but filled with equal volume of PBS. The remaining 54 wells were subjected to cell plating with a multichannel pipette, to each well was added 100 μL. The plate was placed in a CO2-free incubator and cultured at 37° C. for 24 h. […]
The first column of PBS was used as a blank control well, and 100 μL of CCK-8 was added synchronously thereto. […] The optimal detection time was determined according to the shade of color developed by CCK-8 (the optimal OD value for the DMSO group was about 1.0). […] The microplate reader software was opened, the detection parameters were adjusted, and the absorbance at 450 nm (OD value) was detected. The cover of the culture plate was removed, and the culture plate was directly placed horizontally in the plate groove to start reading. After the reading was finished, the program was saved, and the data was exported. […]

ex vivo heart = assay: Ex vivo heart experiments, QT interval

Sequence of hERG potassium channel (Q12809 whole entry): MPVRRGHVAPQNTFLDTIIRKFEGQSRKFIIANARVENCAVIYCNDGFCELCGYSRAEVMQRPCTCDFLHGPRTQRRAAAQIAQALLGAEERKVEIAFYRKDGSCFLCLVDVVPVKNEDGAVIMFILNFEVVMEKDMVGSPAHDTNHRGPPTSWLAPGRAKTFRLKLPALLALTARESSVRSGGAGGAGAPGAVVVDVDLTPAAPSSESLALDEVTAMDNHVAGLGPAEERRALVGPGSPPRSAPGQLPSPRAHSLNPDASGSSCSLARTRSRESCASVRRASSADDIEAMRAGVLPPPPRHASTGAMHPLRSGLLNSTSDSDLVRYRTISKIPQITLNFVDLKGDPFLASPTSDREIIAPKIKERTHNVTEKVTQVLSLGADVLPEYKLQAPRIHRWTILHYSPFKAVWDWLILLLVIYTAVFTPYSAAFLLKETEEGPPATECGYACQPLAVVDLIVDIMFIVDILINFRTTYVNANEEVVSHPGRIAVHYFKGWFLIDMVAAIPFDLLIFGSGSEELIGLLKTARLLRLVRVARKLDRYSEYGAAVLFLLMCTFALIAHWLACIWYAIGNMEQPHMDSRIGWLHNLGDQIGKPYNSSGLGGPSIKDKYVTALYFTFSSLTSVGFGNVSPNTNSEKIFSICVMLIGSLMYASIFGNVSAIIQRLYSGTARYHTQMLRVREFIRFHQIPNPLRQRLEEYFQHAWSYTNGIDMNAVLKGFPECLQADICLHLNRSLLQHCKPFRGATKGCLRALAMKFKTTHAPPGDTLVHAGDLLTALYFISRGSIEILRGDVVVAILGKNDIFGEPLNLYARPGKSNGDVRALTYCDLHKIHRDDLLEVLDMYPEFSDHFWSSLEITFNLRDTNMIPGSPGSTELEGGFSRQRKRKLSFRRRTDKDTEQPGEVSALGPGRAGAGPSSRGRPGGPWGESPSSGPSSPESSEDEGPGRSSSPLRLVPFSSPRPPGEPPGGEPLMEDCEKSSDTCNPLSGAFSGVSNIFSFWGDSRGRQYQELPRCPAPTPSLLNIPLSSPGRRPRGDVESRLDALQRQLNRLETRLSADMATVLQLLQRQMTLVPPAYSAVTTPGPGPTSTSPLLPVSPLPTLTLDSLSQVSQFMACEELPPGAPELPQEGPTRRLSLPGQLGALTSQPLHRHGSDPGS

| IC50 (MDA-MB-468 cells) [nM] | SMILES | IC50 (hERG potassium channel) [nM] | effect on the QT interval (ex vivo heart) | inhibitory effect on the hERG potassium channel (in words) (hERG potassium channel; conclusion from Table 4) |
| --- | --- | --- | --- | --- |
| 116 | CC(=O)N1CCC(Nc2cc(C(=O)NC[C@H](O)CN3CCc4ccccc4C3)ncn2)CC1 [Compound A, (S)-6-((1-Acetylpiperidin-4-yl)amino)-N-(3-(3,4-dihydroisoquinolin-2(1H)-yl)-2-hydroxypropyl)pyrimidine-4-carboxamide] |  |  |  |
| 11.6 | CC(=O)N1CCC(Nc2cc3c(cn2)C2(CC2)CN(C[C@H](O)CN2CCc4ccccc4C2)C3=O)CC1 [Example 1, (R)-7′-((1-acetylpiperidin-4-yl)amino)-2′-(3-(3,4-dihydroisoquinolin-2(1H)-yl)-2-hydroxypropyl)-2′,3′-dihydro-1′H-spiro[cyclopropane-1,4′-[2,6]naphthyridin]-1′-one] | 5240 | no effect on the QT interval | weak inhibitory effect |
| 41.3 | CC(=O)N1CCC(Nc2ccc3c(c2)C(=O)N(C[C@H](O)CN2CCc4ccccc4C2)CC32CC2)CC1 [Compound B, (R)-7′-((1-Acetylpiperidin-4-yl)amino)-2′-(3-(3,4-dihydroisoquinolin-2(1H)-yl)-2-hydroxypropyl)-2′,3′-dihydro-1′H-spiro[cyclopropane-1,4′-isoquinolin]-1′-one, reference compound] | 2710 | significant prolongation of the QT interval |  |

| SMILES | IC50 (MDA-MB-468 cells) [nM] | IC50 (hERG potassium channel) [nM] | effect on the QT interval (ex vivo heart) | inhibitory effect on the hERG potassium channel (in words) (hERG potassium channel; conclusion from Table 4) |
| --- | --- | --- | --- | --- |
| CC(=O)N1CC2(CC(Nc3cc4c(cn3)C3(CC3)CN(C[C@H](O)CN3CCc5ccccc5C3)C4=O)C2)C1 [Example 2, (R)-7′-((2-acetyl-2-azaspiro[3.3]hept-6-yl)amino)-2′-(3-(3,4-dihydroisoquinolin-2(1H)-yl)-2-hydroxypropyl)-2′,3′-dihydro-1′H-spiro[cyclopropane-1,4′-[2,6]naphthyridin]-1-one] | 7.35 | 15100 | no effect on the QT interval |  |
